Laboratory results taken from patent US20090062122A1, “Cotton Growth Regulator” (FMC Corporation, priority 2006, published 2009).

Columns and labels:
Type in all cases: in vivo
cotton, variety D&PL 555 [1] = assay: % defoliation of cotton plants, field trial; details: first open boll application, 4 replicates
Description: (§1) The trial was performed on cotton, variety D&PL 555. The formulated test compounds were diluted to the appropriate concentrations with water to which a crop oil concentrate (1% to 2% v/v) or a non-ionic surfactant (0.25% v/v) was added. The application of the test composition as a cotton plant growth regulator was performed using pressurized, over-the-top spray equipment consisting of a research scale boom sprayer. Deposit of the test composition was primarily to the top of the cotton plants, minimizing spray deposition to lower branches, leaves and fruit. The finished spray volume was 10 gallons per acre, with sprayer nozzle design, orientation and nozzle pressures chosen to prevent spray drift. Applications were made at first sign of cotton boll opening and at 15%, 20% and 40% open bolls.
(§2) The experimental design used randomized plots with 1 to 4 treatment rates of test composition and from 1 to 10 replications depending on the test (sees tables below). The size of each experimental plot was about 15 m^2. Testing was performed in Texas, North Carolina, Mississippi and Georgia.
(§3) Percent desiccation, percent defoliation, percent terminal control and percent open bolls were evaluated at 7 and 14 days after application (DAA) of the test composition. Inspection of cotton plants for insect control of armyworm larvae was performed at 2 DAA and insect damage to bolls was performed at the time of harvest
Defoliation refers to removal of leaves. Percent defoliation rating approximates the proportion of leaves of all sizes shed per 100 leaves present prior to application of the cotton growth regulator compound. An evaluation of the foliage in the untreated check plots was first undertaken. Then the test plots were individually evaluated. The percent of leaves dropped by the plants in the treated plot was determined using observations within the plot and comparisons to foliage in the untreated plot.
(§4) The results, shown as the mean of the indicated number of replications, were compared with results observed in the same trials with an untreated control.

Bollworm (Heliothis zea) = assay: % bolls damaged by bollworm at harvest; details: 15% open boll application, 0.006 lb ai/a, 1 replicate
Description: as §1, with “bolls. […]” for “bolls.”
(§5) Percent desiccation, percent defoliation, percent terminal control and percent open bolls were evaluated at 7 and 14 days after application (DAA) of the test composition. […]
Bollworm (Heliothis zea) and stinkbug (Euschistus servus) insect control was measured by examining the bolls of 100 cotton plants, 50 cotton plants in two representative locations with in the treatment plot, for injury caused by either bollworms or by stinkbugs. The percent damage was calculated by dividing the number of damaged bolls by the total number of bolls on the plants multiplied by 100. […]

cotton, variety D&PL 555 [2] = assay: % desiccation of cotton leaves, field trial
Description: as §1, §2, §3
Desiccation refers to leaves or portions of leaves dried to debris following tissue death. […] An evaluation of the condition of leaves in the untreated check plots were observed. Then the test plots were individually evaluated. The percent of all leaves completely or partially desiccated by the test application were recorded, based upon live leaves and leaf debris within the test plot relative to foliage present in the untreated plot.
as §4

cotton, variety D&PL 555 [3] = assay: % open bolls of cotton plants, field trial; details: 14 DAA
Description: as §1, §2, §3
Open bolls refers to the number of bolls which have opened per 100 cotton plants. Fifty cotton plants in two representative locations within a treatment plot were chosen to examine for open bolls. The percent of open bolls was calculated by dividing the number of open bolls by the total number of bolls on the plants multiplied by 100.
as §4

[4] = system: Fall Armyworms (Spodoptera frugiperda); assay: Number of fall armyworms on cotton plants; details: 15% open boll application; 0.004 lb ai/a; 2 DAA; 3 replicates; insects per plant
Description: as §1
The experimental design used randomized plots with 1 to 4 treatment rates of test composition and from 1 to 10 replications depending on the test (sees tables below). […]
as §5
The presence of fall armyworms (Spodoptera frugiperda) was determined by examining 20 cotton plants within each of 3 replicates of the treatment plots for fall armyworm. The number of insects per plant was calculated by dividing the total number of insects found by 60. […]

## CCOC(=O)C(Cl)Cc1cc(-n2nc(C)n(C(F)F)c2=O)c(F)cc1Cl (centres unmarked) [carfentrazone-ethyl, ethyl 2-chloro-3-[2-chloro-5-(4-difluoromethyl-3-methyl-5-oxo-4,5-dihydro-[1,2,4]-triazol-1-yl)-4-fluorophenyl]propionate]
cotton, variety D&PL 555 [1]; 0.006 lb ai/a, 7 DAA
  % Defoliation: 13%
cotton, variety D&PL 555 [1]; 0.006 lb ai/a, 14 DAA
  % Defoliation: 28%
cotton, variety D&PL 555 [1]; 0.008 lb ai/a, 7 DAA
  % Defoliation: 12%
cotton, variety D&PL 555 [1]; 0.008 lb ai/a, 14 DAA
  % Defoliation: 23%
Bollworm (Heliothis zea)
  % Bolls Damaged by Bollworm (Heliothis zea): 1.75%
cotton, variety D&PL 555 [2]; 15% open boll application, 0.004 lb ai/a, 14 DAA, 10 replicates
  % Desiccation: 29%
cotton, variety D&PL 555 [2]; 15% open boll application, 0.006 lb ai/a, 14 DAA, 10 replicates
  % Desiccation: 33%
cotton, variety D&PL 555 [2]; 15% open boll application, 0.008 lb ai/a, 14 DAA, 10 replicates
  % Desiccation: 37%
cotton, variety D&PL 555 [2]; 15% open boll application, 0.01 lb ai/a, 14 DAA, 10 replicates
  % Desiccation: 38%
cotton, variety D&PL 555 [2]; 20% open boll application, 0.002 lb ai/a, 7 DAA, 3 replicates
  % Desiccation: 8%
cotton, variety D&PL 555 [2]; 20% open boll application, 0.002 lb ai/a, 14 DAA, 2 replicates
  % Desiccation: 13%
cotton, variety D&PL 555 [2]; 20% open boll application, 0.004 lb ai/a, 7 DAA, 3 replicates
  % Desiccation: 17%
cotton, variety D&PL 555 [2]; 20% open boll application, 0.004 lb ai/a, 14 DAA, 2 replicates
  % Desiccation: 23%
cotton, variety D&PL 555 [2]; 20% open boll application, 0.006 lb ai/a, 7 DAA, 3 replicates
  % Desiccation: 21%
cotton, variety D&PL 555 [2]; 20% open boll application, 0.006 lb ai/a, 14 DAA, 2 replicates
  % Desiccation: 22%
cotton, variety D&PL 555 [2]; 20% open boll application, 0.008 lb ai/a, 7 DAA, 3 replicates
  % Desiccation: 24%
cotton, variety D&PL 555 [2]; 20% open boll application, 0.008 lb ai/a, 14 DAA, 2 replicates
  % Desiccation: 22%
cotton, variety D&PL 555 [2]; 40% open boll application, 0.004 lb ai/a, 7 DAA, 1 replicate
  % Desiccation: 6%
cotton, variety D&PL 555 [2]; 40% open boll application, 0.006 lb ai/a, 7 DAA, 1 replicate
  % Desiccation: 5%
cotton, variety D&PL 555 [2]; 40% open boll application, 0.008 lb ai/a, 7 DAA, 1 replicate
  % Desiccation: 9%
cotton, variety D&PL 555 [2]; first open boll application, 0.002 lb ai/a, 7 DAA, 4 replicates
  % Desiccation: 15%
cotton, variety D&PL 555 [2]; first open boll application, 0.002 lb ai/a, 14 DAA, 4 replicates
  % Desiccation: 18%
cotton, variety D&PL 555 [2]; first open boll application, 0.004 lb ai/a, 7 DAA, 4 replicates
  % Desiccation: 25%
cotton, variety D&PL 555 [2]; first open boll application, 0.004 lb ai/a, 14 DAA, 4 replicates
  % Desiccation: 25%
cotton, variety D&PL 555 [2]; first open boll application, 0.006 lb ai/a, 7 DAA, 4 replicates
  % Desiccation: 28%
cotton, variety D&PL 555 [2]; first open boll application, 0.006 lb ai/a, 14 DAA, 4 replicates
  % Desiccation: 28%
cotton, variety D&PL 555 [2]; first open boll application, 0.008 lb ai/a, 7 DAA, 4 replicates
  % Desiccation: 33%
cotton, variety D&PL 555 [2]; first open boll application, 0.008 lb ai/a, 14 DAA, 4 replicates
  % Desiccation: 32%
cotton, variety D&PL 555 [3]; 15% open boll application, 0.004 lb ai/a, 10 replicates
  % Open Bolls: 59%
cotton, variety D&PL 555 [3]; 15% open boll application, 0.006 lb ai/a, 10 replicates
  % Open Bolls: 61%
cotton, variety D&PL 555 [3]; 15% open boll application, 0.008 lb ai/a, 10 replicates
  % Open Bolls: 64%
cotton, variety D&PL 555 [3]; 15% open boll application, 0.01 lb ai/a, 10 replicates
  % Open Bolls: 63%
cotton, variety D&PL 555 [3]; 20% open boll application, 0.002 lb ai/a, 3 replicates
  % Open Bolls: 62%
cotton, variety D&PL 555 [3]; 20% open boll application, 0.004 lb ai/a, 3 replicates
  % Open Bolls: 62%
cotton, variety D&PL 555 [3]; 20% open boll application, 0.006 lb ai/a, 3 replicates
  % Open Bolls: 67%
cotton, variety D&PL 555 [3]; 20% open boll application, 0.008 lb ai/a, 3 replicates
  % Open Bolls: 62%
cotton, variety D&PL 555 [3]; first open boll application, 0.002 lb ai/a, 3 replicates
  % Open Bolls: 61%
cotton, variety D&PL 555 [3]; first open boll application, 0.004 lb ai/a, 3 replicates
  % Open Bolls: 58%
cotton, variety D&PL 555 [3]; first open boll application, 0.006 lb ai/a, 3 replicates
  % Open Bolls: 63%
cotton, variety D&PL 555 [3]; first open boll application, 0.008 lb ai/a, 3 replicates
  % Open Bolls: 68%
[4]
  Number of insects (Fall Armyworms, Spodoptera frugiperda): 0
